Assay results published in US6479437B1, “Herbicidal mixture containing a 3-heterocyclyl-substituted benzoyl derivative” (priority 1998, dated 2002).

Legend:
Type in all cases: in vivo
Details in all cases: adjuvant 0.25 and ENSOL 28 0.375 kg/ha where added, scale 0-100
[1] = system: ABUTH (Abutilon theophrasti, velvetleaf); test: Selective herbicidal activity post-emergence in the greenhouse
Procedure: (§1) The culture containers used were plastic pots containing loamy sand with approximately 3.0% of humus as substrate. The seeds of the test plants were sown separately for each species.
(§2) For the post-emergence treatment, the test plants were grown to a plant height of from 3 to 15 cm, depending on the plant habit, and only then treated with the herbicidal mixture which had been suspended or emulsified in water. To this end, the test plants were either sown directly and grown in the same containers, or they were first grown separately as seedlings and transplanted into the test containers a few days prior to treatment.
(§3) Depending on the species, the plants were kept at 10-25° C. or 20-35° C. The test period extended over 2 to 4 weeks. During this time, the plants were tended, and their response to the individual treatments was evaluated.
(§4) Evaluation was carried out using a scale of from 0 to 100. 100 means no emergence of the plants, or complete destruction of at least the aerial parts, and 0 means no damage or normal course of growth.

[2] = system: CHEAL (Chenopodium album, lambsquarters); test: as above
Procedure: as §1, §2, §3, §4

[3] = system: SETVI (Setaria viridis, green foxtail); test: as above
Procedure: as §1, §2, §3, §4

[4] = system: POLPE (Polygonum persicaria, lady's thumb); test: as above
Procedure: as §1, §2, §3, §4

[5] = system: ECHCG (Echinochloa crus-galli, barnyardgrass); test: as above
Procedure: as §1, §2, §3, §4

ZEAMX (Zea mays, corn) = test: Selective herbicidal activity post-emergence in the greenhouse (crop phytotoxicity)
Procedure: as §1, §2, §3, §4

[6] = Table 5, EX. 1 0.0312 kg/ha a.s.
[7] = Table 1, EX. 1 0.0078 kg/ha a.s.
[8] = Table 2, EX. 1 0.0625 kg/ha a.s.
[9] = Table 11, EX. 1 0.0078 kg/ha a.s.
[10] = Table 17, EX. 1 0.0078 kg/ha a.s.
[11] = Table 19, EX. 1 0.0078 kg/ha a.s.
[12] = Table 20, EX. 1 0.0078 kg/ha a.s.
[13] = Table 21, EX. 1 0.0078 kg/ha a.s.
[14] = Table 8, EX. 1 0.0625 kg/ha a.s.

Cn1ncc(C(=O)c2ccc(S(C)(=O)=O)c(C3=NOCC3)c2Cl)c1O [EX. 1]
Phytotoxicity ABUTH ([1]; Table 4, EX. 1 0.0156 kg/ha a.s.): 20 | Phytotoxicity ABUTH [1, 6]: 75 | Phytotoxicity ABUTH ([1]; Table 16, EX. 1 0.0156 kg/ha a.s.): 20 | Phytotoxicity CHEAL [2, 7]: 20 | Phytotoxicity CHEAL [2, 8]: 50 | Phytotoxicity CHEAL ([2]; Table 6, EX. 1 0.0078 kg/ha a.s.): 20 | Phytotoxicity CHEAL ([2]; Table 7, EX. 1 0.0156 kg/ha a.s.): 20 | Phytotoxicity CHEAL ([2]; Table 10, EX. 1 0.0078 kg/ha a.s.): 20 | Phytotoxicity CHEAL [2, 9]: 20 | Phytotoxicity CHEAL ([2]; Table 12, EX. 1 0.0156 kg/ha a.s.): 20 | Phytotoxicity CHEAL ([2]; Table 13, EX. 1 0.0156 kg/ha a.s.): 20 | Phytotoxicity CHEAL ([2]; Table 14, EX. 1 0.0156 kg/ha a.s.): 20 | Phytotoxicity SETVI [3, 9]: 30 | Phytotoxicity SETVI [3, 10]: 30 | Phytotoxicity SETVI [3, 11]: 40 | Phytotoxicity SETVI [3, 12]: 40 | Phytotoxicity SETVI [3, 13]: 40 | Phytotoxicity POLPE [4, 10]: 20 | Phytotoxicity POLPE ([4]; Table 18, EX. 1 0.0078 kg/ha a.s.): 70 | Phytotoxicity POLPE [4, 11]: 70 | Phytotoxicity POLPE [4, 13]: 70 | Phytotoxicity ECHCG ([5]; Table 3, EX. 1 0.0625 kg/ha a.s.): 50 | Phytotoxicity ECHCG [5, 6]: 030 | Phytotoxicity ECHCG [5, 14]: 50 | Phytotoxicity ECHCG ([5]; Table 9, EX. 1 0.0625 kg/ha a.s.): 50 | Phytotoxicity ECHCG ([5]; Table 15, EX. 1 0.0625 kg/ha a.s.): 50 | Phytotoxicity ZEAMX (ZEAMX (Zea mays, corn); [7]): 0 | Phytotoxicity ZEAMX (ZEAMX (Zea mays, corn); [8]): 0 | Phytotoxicity ZEAMX (ZEAMX (Zea mays, corn); [14]): 0 | Phytotoxicity ZEAMX (ZEAMX (Zea mays, corn); [12]): 0
